Reference: US10538491B2, “4,5-substituted picolinamide and picolinonitrile metabotropic glutamate receptor 2 negative allosteric modulators” (Vanderbilt University, priority 2015, dated 2020)
Where two headings read alike, the source gives them in different places.

Tests used:
[1] = tested on: group II mGlu receptors (mGlu2 and mGlu3); conditions: cited from earlier work
[2] = target: rat mGlu2 (Rattus norvegicus (Rat), UniProt P31421); experiment: mGlu2 Ca2+ flux assay; format: cell-based; conditions: for IC50: Gα15 HEK293 cells stably expressing rat mGlu2, glutamate EC80, >10,000 = no plateau, >30,000 = no measurable activity; for remaining activity at 30 µM / rat mGlu2 Glu max: amplitude of response in the presence of 30 μM test compound as percentage of maximal response to glutamate; for remaining activity at 30 µM: read-out: rat mGlu2 Glu max
rat mGlu2, sequence (P31421 19-872): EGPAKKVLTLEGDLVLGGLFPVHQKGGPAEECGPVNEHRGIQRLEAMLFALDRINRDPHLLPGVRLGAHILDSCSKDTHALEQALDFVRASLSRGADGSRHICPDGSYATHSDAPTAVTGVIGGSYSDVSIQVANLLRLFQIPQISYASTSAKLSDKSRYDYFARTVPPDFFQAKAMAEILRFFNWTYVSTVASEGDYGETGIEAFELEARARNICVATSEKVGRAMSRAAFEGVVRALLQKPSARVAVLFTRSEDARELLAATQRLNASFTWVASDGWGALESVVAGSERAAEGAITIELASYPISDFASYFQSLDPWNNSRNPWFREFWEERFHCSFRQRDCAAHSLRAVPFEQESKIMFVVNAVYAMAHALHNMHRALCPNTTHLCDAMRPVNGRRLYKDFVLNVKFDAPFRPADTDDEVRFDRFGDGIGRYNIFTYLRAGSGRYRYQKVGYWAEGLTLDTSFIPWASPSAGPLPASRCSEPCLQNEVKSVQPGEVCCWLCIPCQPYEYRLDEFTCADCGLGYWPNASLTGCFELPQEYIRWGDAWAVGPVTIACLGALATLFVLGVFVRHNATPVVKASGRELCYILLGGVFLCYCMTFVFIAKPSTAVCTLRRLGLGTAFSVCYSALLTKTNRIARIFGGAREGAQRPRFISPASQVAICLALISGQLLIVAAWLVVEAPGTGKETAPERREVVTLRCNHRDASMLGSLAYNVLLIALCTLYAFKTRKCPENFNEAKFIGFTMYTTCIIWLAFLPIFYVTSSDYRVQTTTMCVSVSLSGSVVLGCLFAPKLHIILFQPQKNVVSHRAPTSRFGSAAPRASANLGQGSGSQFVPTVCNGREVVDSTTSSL
Outline: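 Gα15 HEK293 cells stably expressing rat mGlu2, Fluo-4 loaded; compound added, then glutamate at EC20 after 2.3 min and EC80 afterward, calcium flux read as F/F0. Peak amplitude around EC80 addition normalized to glutamate max; IC50 by unconstrained 4-parameter fit, top concentration 30 μM.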

[3] = tested on: mouse; conditions: mouse TST, normal animals; cited from earlier work
[4] = tested on: Aβ-induced neurodegeneration; conditions: cited from earlier work
[5] = tested on: rat; conditions: rat FST, normal animals; cited from earlier work
[6] = tested on: mice; conditions: cited from earlier work
[7] = tested on: Helpless (H) mice; conditions: cited from earlier work; for activity in the tail suspension test: Helpless (H) mice
[8] = tested on: central mGlu2 and mGlu3 receptors; conditions: in vivo; cited from earlier work
[9] = tested on: C57Bl6/J mice; conditions: FST; cited from earlier work
[10] = CFS model; cited from earlier work

## CCCCCCCOC(=O)[C@@]1(F)[C@@H]2C[C@@H](OCc3ccc(Cl)c(Cl)c3)[C@@](N)(C(=O)O)[C@@H]21 [BCI-838]
[1]; once-daily dosing of oral prodrug
  duration of inhibition of group II mGlu receptors by brain concentration of active metabolite BCI-632: 22 h
[1]; three months of treatment, Dutch APP transgenic mice
  learning and memory impairment: reversed Dutch APP transgene-associated learning and memory impairment
[1]; three months of treatment, two AD mouse models
  levels of monomeric and oAβ peptides in hippocampus and cortex: decreased the levels of monomeric and oAβ peptides
[1]; three months of treatment
  anxiolytic effects: anxiolytic effects
[1]; wild-type and Alzheimer's diseased mice, 3 months
  hippocampal progenitor cell proliferation: stimulated hippocampal progenitor cell proliferation

## CN(CCOCc1cncc(F)c1)c1cnc(C(N)=O)cc1-c1ccc(F)cc1 [Compound 131, 4-(4-fluorophenyl)-5-((2-((5-fluoropyridin-3-yl)methoxy)ethyl)(methyl)amino)picolinamide]
[2]
  IC50: 5770 nM
  remaining activity at 30 µM: 2.62%

## NC(=O)c1cc(-c2ccc(F)cc2)c(NCC2CCOCC2)cn1 [Compound 132, 4-(4-fluorophenyl)-5-(((tetrahydro-2H-pyran-4-yl)methyl)amino)picolinamide]
[2]
  IC50: 1050 nM
  remaining activity at 30 µM: -1.48%

## NC(=O)c1cc(-c2ccc(F)cc2)c(NCCN2CCOCC2)cn1 [Compound 133, 4-(4-fluorophenyl)-5-((2-morpholinoethyl)amino)picolinamide]
[2]
  IC50: 6540 nM
  remaining activity at 30 µM: -4.31%

## CC(CN1CCOCC1)Nc1cnc(C(N)=O)cc1-c1ccc(F)cc1 (stereo not drawn) [Compound 134, 4-(4-fluorophenyl)-5-((1-morpholinopropan-2-yl)amino)picolinamide]
[2]
  IC50: 2710 nM
  remaining activity at 30 µM: -3.71%

## CC(CNc1cnc(C(N)=O)cc1-c1ccc(F)cc1)N1CCOCC1 (stereo not drawn) [Compound 135, 4-(4-fluorophenyl)-5-((2-morpholinopropyl)amino)picolinamide]
[2]
  IC50: 5700 nM
  remaining activity at 30 µM: 1.19%

## CN(CCN1CCOCC1)c1cnc(C(N)=O)cc1-c1ccc(F)cc1 [Compound 136, 4-(4-fluorophenyl)-5-(methyl(2-morpholinoethyl)amino)picolinamide]
[2]
  IC50: > 10000 nM
  remaining activity at 30 µM: 31%

## NC(=O)c1cc(-c2ccc(F)cc2)c(NCCCN2CCOCC2)cn1 [Compound 137, 4-(4-fluorophenyl)-5-((3-morpholinopropyl)amino)picolinamide]
[2]
  IC50: 9870 nM
  remaining activity at 30 µM: -13.5%

## NC(=O)c1cc(-c2ccc(F)cc2)c(N2CCC(Oc3ccnc(C(F)(F)F)c3)CC2)cn1 [Compound 138, 4-(4-fluorophenyl)-5-(4-((2-(trifluoromethyl)pyridin-4-yl)oxy)piperidin-1-yl)picolinamide]
[2]
  IC50: > 10000 nM

## Cc1ccc(OC2CCN(c3cnc(C(N)=O)cc3-c3ccc(F)cc3)CC2)cn1 [Compound 139, 4-(4-fluorophenyl)-5-(4-((6-methylpyridin-3-yl)oxy)piperidin-l-yl)picolinamide]
[2]
  IC50: 9590 nM
  rat mGlu2 Glu max: 7.04%

## NC(=O)c1cc(-c2ccc(F)cc2)c(N2CCC(Oc3cccnc3)CC2)cn1 [Compound 140, 4-(4-fluorophenyl)-5-(4-(pyridin-3-yloxy)piperidin-1-yl)picolinamide]
[2]
  IC50: > 10000 nM
  remaining activity at 30 µM: 29.8%

## NC(=O)c1cc(-c2ccc(F)cc2)c(N2CC(Oc3ccc(C(F)(F)F)nc3)C2)cn1 [Compound 141, 4-(4-fluorophenyl)-5-(3-((6-(trifluoromethyl)pyridin-3-yl)oxy)azetidin-1-yl)picolinamide]
[2]
  IC50: > 10000 nM
  remaining activity at 30 µM: 53.9%

## Cc1ccc(OC2CN(c3cnc(C(N)=O)cc3-c3ccc(F)cc3)C2)cn1 [Compound 142, 4-(4-fluorophenyl)-5-(3-((6-methylpyridin-3-yl)oxy)azetidin-1-yl)picolinamide]
[2]
  IC50: 1280 nM
  remaining activity at 30 µM: 2.35%

## NC(=O)c1cc(-c2ccc(F)cc2)c(N2CC(Oc3cccnc3)C2)cn1 [Compound 143, 4-(4-fluorophenyl)-5-(3-(pyridin-3-yloxy)azetidin-1-yl)picolinamide]
[2]
  IC50: 2030 nM
  remaining activity at 30 µM: 7.01%

## NC(=O)c1cc(-c2ccc(F)cc2)c(N2CCC(Oc3ccnc(C(F)(F)F)c3)C2)cn1 (stereo not drawn) [Compound 144, 4-(4-fluorophenyl)-5-(3-((2-(trifluoromethyl)pyridin-4-yl)oxy)pyrrolidin-1-yl)picolinamide]
[2]
  IC50: 7450 nM
  remaining activity at 30 µM: 1.28%

## N#Cc1cccc(COc2cnc(C(N)=O)cc2-c2ccc(F)cc2)c1 [Compound 145, 5-((3-Cyanobenzyl)oxy)-4-(4-fluorophenyl)picolinamide]
[2]
  IC50: 429 nM
  remaining activity at 30 µM: 1.5%

## N#Cc1cc(F)cc(COc2cnc(C(N)=O)cc2-c2ccc(F)cc2)c1 [Compound 146, 5-((3-cyano-5-fluorobenzyl)oxy)-4-(4-fluorophenyl)picolinamide]
[2]
  IC50: 944 nM
  remaining activity at 30 µM: 0.48%

## N#Cc1ccc(F)c(COc2cnc(C(N)=O)cc2-c2ccc(F)cc2)c1 [Compound 147, 5-((5-cyano-2-fluorobenzyl)oxy)-4-(4-fluorophenyl)picolinamide]
[2]
  IC50: 313 nM
  remaining activity at 30 µM: 0.73%

## N#Cc1cc(COc2cnc(C(N)=O)cc2-c2ccc(F)cc2)ccc1F [Compound 148, 5-((3-cyano-4-fluorobenzyl)oxy)-4-(4-fluorophenyl)picolinamide]
[2]
  IC50: 1680 nM
  remaining activity at 30 µM: 0.43%

## N#Cc1cccc(COc2cnc(C(N)=O)cc2-c2ccc(F)cc2)c1F [Compound 149, 5-((3-cyano-2-fluorobenzyl)oxy)-4-(4-fluorophenyl)picolinamide]
[2]
  IC50: 254 nM
  remaining activity at 30 µM: 1.66%

## N#Cc1ccccc1COc1cnc(C(N)=O)cc1-c1ccc(F)cc1 [Compound 150, 5-((2-cyanobenzyl)oxy)-4-(4-fluorophenyl)picolinamide]
[2]
  IC50: 98 nM
  remaining activity at 30 µM: 1.14%

## N#Cc1cncc(COc2cnc(C(N)=O)cc2-c2ccc(F)cc2)c1 [Compound 151]
[2]
  IC50: 683 nM
  rat mGlu2 Glu max: 2.05%

## N#Cc1cccc(OCCOc2cnc(C(N)=O)cc2-c2ccc(F)cc2)c1 [Compound 152, 5-(2-(3-cyanophenoxy)ethoxy)-4-(4-fluorophenyl)picolinamide]
[2]
  IC50: 1220 nM
  remaining activity at 30 µM: 1.44%

## N#Cc1cc(F)cc(OCCOc2cnc(C(N)=O)cc2-c2ccc(F)cc2)c1 [Compound 153, 5-(2-(3-cyano-5-fluorophenoxy)ethoxy)-4-(4-fluorophenyl)picolinamide]
[2]
  IC50: 1370 nM
  remaining activity at 30 µM: 1.58%

## N#Cc1cc(OCCOc2cnc(C(N)=O)cc2-c2ccc(F)cc2)ccc1F [Compound 154, 5-(2-(3-cyano-4-fluorophenoxy)ethoxy)-4-(4-fluorophenyl)picolinamide]
[2]
  IC50: 1390 nM
  remaining activity at 30 µM: 4.19%

## N#Cc1cccc(OCCOc2cnc(C(N)=O)cc2-c2ccc(F)cc2)c1F [Compound 155, 5-(2-(3-cyano-2-fluorophenoxy)ethoxy)-4-(4-fluorophenyl)picolinamide]
[2]
  IC50: 528 nM
  remaining activity at 30 µM: 1.07%

## N#Cc1ccc(F)c(OCCOc2cnc(C(N)=O)cc2-c2ccc(F)cc2)c1 [Compound 156, 5-(2-(5-cyano-2-fluorophenoxy)ethoxy)-4-(4-fluorophenyl)picolinamide]
[2]
  IC50: 4230 nM
  remaining activity at 30 µM: -21.7%

## N#Cc1cncc(OCCOc2cnc(C(N)=O)cc2-c2ccc(F)cc2)c1 [Compound 157, 5-(2-((5-cyanopyridin-3-yl)oxy)ethoxy)-4-(4-fluorophenyl)picolinamide]
[2]
  IC50: 691 nM
  remaining activity at 30 µM: 4.33%

## N[C@](CC1c2ccccc2Oc2ccccc21)(C(=O)O)[C@H]1C[C@@H]1C(=O)O [LY341495]
[3]
  antidepressant-like effects: Antidepressant-like effects
[4]
  effect on LY566332-amplified Aβ-induced neurodegeneration: prevented
[5]
  antidepressant-like effects: Antidepressant-like effects
[6]
  marble-burying behavior: significantly reduce marble-burying behavior
[7]
  activity in the tail suspension test: active
[7]; acute administration
  antidepressant effect in helpless mice: potent antidepressant effect
[8]
  hypolocomotor effect of mGlu2/3 agonist (LY379268): achieved the same result
[9]
  immobility time: dose-dependently reduced immobility time

## CCS(=O)(=O)N(Cc1cccnc1)c1cccc(-c2ccc(C#N)cc2)c1 [LY566332]
[4]
  Aβ-induced neurodegeneration: amplified Aβ-induced neurodegeneration

## Cc1cc(-c2cccc(C3=Nc4cc(C)c(C(F)(F)F)cc4NC(=O)C3)c2)cc(C)n1 [RO4491533]
[7]
  activity in the tail suspension test: active
[8]
  hypolocomotor effect of mGlu2/3 agonist (LY379268): reversed the hypolocomotor effect
[9]
  immobility time: dose-dependently reduced immobility time

## CN1C(=O)CN=C(c2ccccc2)c2cc(Cl)ccc21 [diazepam]
[10]
  freezing behavior: significantly decreased freezing behavior

## CNCCC(Oc1ccc(C(F)(F)F)cc1)c1ccccc1 (stereo not drawn) [fluoxetine]
[7]; chronic (21 days) treatment
  antidepressant effect in helpless mice: full antidepressant effect
